Assay results reported in PubChem BioAssay (NCI).
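Five concentrations, 48 hours, 96-well plates. TGI is the concentration that stops growth completely.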

Assays:
Assay in all cases: inhibition of tumour cell growth, NCI panel, 48 h
SK-OV-3 ovarian = system: SK-OV-3 ovarian
DMS 114 small cell lung = system: DMS 114 small cell lung
U251 CNS = system: U251 CNS
UACC-257 melanoma = system: UACC-257 melanoma
SN12C renal = system: SN12C renal
LXFL 529 NSCLC = system: LXFL 529 NSCLC
SF-268 CNS = system: SF-268 CNS
NCI-H460 lung = system: NCI-H460 lung
RPMI-8226 leukemia = system: RPMI-8226 leukemia
LOX IMVI melanoma = system: LOX IMVI melanoma
KM12 colon = system: KM12 colon
OVCAR-8 ovarian = system: OVCAR-8 ovarian
CCRF-CEM leukemia = system: CCRF-CEM leukemia
IGROV1 ovarian = system: IGROV1 ovarian
SK-MEL-5 melanoma = system: SK-MEL-5 melanoma
TK-10 renal = system: TK-10 renal
OVCAR-5 ovarian = system: OVCAR-5 ovarian
SK-MEL-2 melanoma = system: SK-MEL-2 melanoma
SNB-19 CNS = system: SNB-19 CNS
HCT-15 colon = system: HCT-15 colon
MALME-3M melanoma = system: MALME-3M melanoma
OVCAR-3 ovarian = system: OVCAR-3 ovarian
SW-620 colon = system: SW-620 colon
SK-MEL-28 melanoma = system: SK-MEL-28 melanoma
HL-60(TB) leukemia = system: HL-60(TB) leukemia
ACHN renal = system: ACHN renal
UACC-62 melanoma = system: UACC-62 melanoma
SR leukemia = system: SR leukemia
COLO 205 colon = system: COLO 205 colon
SNB-78 CNS = system: SNB-78 CNS
DMS 273 small cell lung = system: DMS 273 small cell lung
CAKI-1 renal = system: CAKI-1 renal
M14 melanoma = system: M14 melanoma
HCT-116 colon = system: HCT-116 colon
NCI-H23 lung = system: NCI-H23 lung
K-562 leukemia = system: K-562 leukemia
786-0 renal = system: 786-0 renal
NCI-H522 lung = system: NCI-H522 lung
UO-31 renal = system: UO-31 renal
MOLT-4 leukemia = system: MOLT-4 leukemia
OVCAR-4 ovarian = system: OVCAR-4 ovarian
HT29 colon = system: HT29 colon
A549 NSCLC = system: A549 NSCLC
HOP-92 NSCLC = system: HOP-92 NSCLC
KM20L2 colon = system: KM20L2 colon
DLD-1 colon = system: DLD-1 colon
SNB-75 CNS = system: SNB-75 CNS
M19-MEL melanoma = system: M19-MEL melanoma
SF-539 CNS = system: SF-539 CNS
SF-295 CNS = system: SF-295 CNS
HOP-62 NSCLC = system: HOP-62 NSCLC
RXF 393 renal = system: RXF 393 renal
HOP-18 NSCLC = system: HOP-18 NSCLC
XF 498 CNS = system: XF 498 CNS
EKVX NSCLC = system: EKVX NSCLC
NCI-H226 lung = system: NCI-H226 lung
HCC-2998 colon = system: HCC-2998 colon
A498 renal = system: A498 renal

Measured: TGI

O=C(c1cccs1)N(C(=S)N1CCN(c2ccccc2)CC1)C1CCCCC1
not listed: XF 498 CNS | EKVX NSCLC | NCI-H226 lung | HCC-2998 colon | A498 renal
> 100 µM: all other assays above

O=C1C(Cl)N(c2ccc(Cl)cc2Cl)C1c1c[nH]c2ccccc12 (centres undefined)
not listed: LOX IMVI melanoma | OVCAR-5 ovarian | HCT-15 colon | ACHN renal | SNB-78 CNS | DMS 273 small cell lung | CAKI-1 renal | 786-0 renal | DLD-1 colon | HOP-18 NSCLC | NCI-H226 lung | HCC-2998 colon | A498 renal
> 100 µM: all other assays above

O=C1CCC2(c3ccc(F)cc3)Nc3ncccc3N12 (centres undefined)
not listed: SK-OV-3 ovarian | DMS 114 small cell lung | SNB-19 CNS | SR leukemia | DMS 273 small cell lung | HCT-116 colon | HOP-18 NSCLC
> 100 µM: all other assays above

O=C1c2cccc(O)c2C(=O)c2cccc(O)c21
not listed: SK-OV-3 ovarian | DMS 114 small cell lung | SK-MEL-5 melanoma | MALME-3M melanoma | SK-MEL-28 melanoma | HL-60(TB) leukemia | SR leukemia | KM20L2 colon | HOP-18 NSCLC
> 100 µM: all other assays above

CC1(C)c2ccccc2C(C)(C)C(C(=O)Nc2ccccc2)C1C(=O)O (centres undefined)
not listed: NCI-H460 lung | IGROV1 ovarian | HCT-15 colon | SR leukemia | CAKI-1 renal | OVCAR-4 ovarian | XF 498 CNS
> 100 µM: all other assays above
